{"source": "paper PMC10295947", "about": "(Biomolecules, 2023)", "target": "MOR (Mus musculus, UniProt P42866)", "sequence (P42866 whole entry)": "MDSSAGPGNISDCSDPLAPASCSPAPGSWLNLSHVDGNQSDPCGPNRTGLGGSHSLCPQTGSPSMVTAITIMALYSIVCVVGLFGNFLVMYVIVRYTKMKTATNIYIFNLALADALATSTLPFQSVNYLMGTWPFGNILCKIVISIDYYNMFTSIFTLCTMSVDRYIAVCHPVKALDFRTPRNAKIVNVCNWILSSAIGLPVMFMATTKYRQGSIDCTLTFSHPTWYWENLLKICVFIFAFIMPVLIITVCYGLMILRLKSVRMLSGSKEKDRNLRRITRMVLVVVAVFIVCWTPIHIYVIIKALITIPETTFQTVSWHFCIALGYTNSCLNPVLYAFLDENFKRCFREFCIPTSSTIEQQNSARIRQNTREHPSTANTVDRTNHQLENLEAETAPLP", "type": "biochemical", "note": "Structures can show the parent of a compound that is named as a salt."}
{"compound": "COc1ccsc1CNCC[C@@]1(c2ccccn2)CCOC2(CCCC2)C1", "note": "[oliceridine, Oliceridine hydrochloride]", "values": [{"measurement": "Stimulation of 35S-GTPγS binding (in words)", "result": "no measurable stimulation"}]}
